Experimental data from patent publication US10213438B2, “Alkaloid compounds for treating depression, substance addictions, and indications associated with chronic inflammation” (MyMD Pharmaceuticals, Inc., priority 2014, dated 2019).

Columns and labels:
RAW macrophage cells = assay: assay of cell viability in RAW macrophage cells; format: cell-based, mouse; conditions: RAW 264.7 cells, FIG. 1
Experimental: (§1) This example illustrates in vitro studies of 2-(pyridin-3-yl)-2,3,4,7-tetrahydro-1H-azepine. For these experiments, the mouse macrophage cell line RAW 264.7 was used (referred to herein as RAW). The design of the experiments is the following:
Before testing the anti-inflammatory effect(s) of 2-(pyridin-3-yl)-2,3,4,7-tetrahydro-1H-azepine, an assay of cell viability was performed. […] Toxicity was only seen at higher doses (3 mM and above).

iNOS = assay: LPS-stimulated RAW cells, protein blot for iNOS expression; format: cell-based, mouse
Experimental: as §1
(§2) RAW cells were plated in complete medium overnight. The following day, a known inflammatory stimulus (bacterial LPS) was added to the culture wells. Following a 15 minute stimulation, 2-(pyridin-3-yl)-2,3,4,7-tetrahydro-1H-azepine (7-MR) was added to the culture at different concentrations. Twenty-four hours later, RAW cells were harvested and their proteins extracted. Proteins were then run on a polyacrylamide gels and transferred to a nitrocellulose membrane. The membrane was finally probed with commercial antibodies against some classic inflammatory markers.
(§3) The following three inflammatory markers were tested:
iNOS (SantaCruz Biotechnology, sc-650)

COX-2 = assay: LPS-stimulated RAW cells, protein blot for COX-2 expression; format: cell-based, mouse; conditions: LPS stimulation, compound added after 15 minutes, harvest 24 hours later, FIG. 2
Experimental: as §1, §2, §3
COX-2 (antibody made by Cayman Chemical, catalog number 160106)

MAO-A [1] = target: T1, MAO-A (Homo sapiens, UniProt P21397); assay: MAO-Glo luminescent assay, MAO-A; format: biochemical; conditions: 1 hour at room temperature, FIG. 5
T1 sequence (P21397 1-527): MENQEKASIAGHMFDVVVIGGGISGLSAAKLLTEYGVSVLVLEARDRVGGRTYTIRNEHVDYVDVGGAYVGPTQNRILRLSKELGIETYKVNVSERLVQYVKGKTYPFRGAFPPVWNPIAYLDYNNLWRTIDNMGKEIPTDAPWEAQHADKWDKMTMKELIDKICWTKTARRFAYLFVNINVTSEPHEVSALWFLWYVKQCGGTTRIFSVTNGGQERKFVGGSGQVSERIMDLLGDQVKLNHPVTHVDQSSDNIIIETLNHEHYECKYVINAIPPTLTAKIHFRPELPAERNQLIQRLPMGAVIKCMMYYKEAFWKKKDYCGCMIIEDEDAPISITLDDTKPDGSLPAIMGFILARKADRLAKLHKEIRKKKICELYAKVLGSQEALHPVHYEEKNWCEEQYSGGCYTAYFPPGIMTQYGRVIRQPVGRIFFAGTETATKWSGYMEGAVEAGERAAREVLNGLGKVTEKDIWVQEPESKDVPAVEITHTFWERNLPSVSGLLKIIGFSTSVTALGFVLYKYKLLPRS
Description: This example describes experiments for determining monoamine oxidase (MAO) inhibition for 2-(pyridin-3-yl)-2,3,4,7-tetrahydro-1H-azepine and other alkaloids. MAOs are enzymes located on the outer membrane of mitochondria and are involved in the catabolism of monoamine neurotransmitters. There are two well-characterized isoenzymes: MAO-A, which predominantly catabolizes serotonin and norepinephrine, and MAO-B, which preferentially catabolizes benzylamine and phenylethylamine. Dopamine and tyramine are metabolized by both isoforms.
To detect the activity of MAO, a luminescent method (MAO-Glo Assay kit, from Promega, Cat # V1401) was used. In this method, a MAO substrate (a derivative of beetle luciferin provided in the kit) is mixed with the compound to be tested (in this case, myosmine and control compounds). Then, the MAO enzymes (either A or B, purchased separately) are added to the mixture and incubated with the reaction for 1 hour at room temperature. The MAO enzymes, if not inhibited by the test compound, will convert the substrate into methyl ester luciferin. Finally, a luciferin detection reagent (provided by the kit) is added (20 minutes at room temperature) to stop the MAO reaction and convert methyl ester luciferin into D-luciferin. […] The luminescent signal is measured and recorded using a luminometer. […]

mice = conditions: cited from earlier work; for effect on dopamine levels: MPTP
MAO-A [2] = target: T1, MAO-A; conditions: cited from earlier work
MAO-B = target: T2, MAO-B (Homo sapiens, UniProt P27338); conditions: cited from earlier work
T2 sequence (P27338 1-520): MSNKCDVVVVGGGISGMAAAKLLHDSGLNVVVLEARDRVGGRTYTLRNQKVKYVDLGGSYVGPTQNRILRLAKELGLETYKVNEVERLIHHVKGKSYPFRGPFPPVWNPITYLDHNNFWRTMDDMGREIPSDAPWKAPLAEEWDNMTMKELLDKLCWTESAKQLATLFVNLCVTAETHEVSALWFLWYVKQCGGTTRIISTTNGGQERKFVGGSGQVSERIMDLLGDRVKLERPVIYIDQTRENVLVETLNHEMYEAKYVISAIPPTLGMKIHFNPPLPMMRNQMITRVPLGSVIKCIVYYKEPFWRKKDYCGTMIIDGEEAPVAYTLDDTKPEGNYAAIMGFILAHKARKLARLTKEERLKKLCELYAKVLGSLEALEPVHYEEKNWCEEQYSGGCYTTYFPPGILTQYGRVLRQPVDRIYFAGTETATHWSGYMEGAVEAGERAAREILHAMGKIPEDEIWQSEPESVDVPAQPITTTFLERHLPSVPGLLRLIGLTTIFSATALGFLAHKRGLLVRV

## C1=CCNC(c2cccnc2)CC1 (stereo not shown) [2-(pyridin-3-yl)-2,3,4,7-tetrahydro-1H-azepine]
RAW macrophage cells
  concentration not toxic to RAW macrophage cells (cell viability): up to 2 mM
RAW macrophage cells; higher doses
  concentration at which toxicity was seen (cell viability): ≥ 3000 µM
iNOS; LPS stimulation, compound added after 15 minutes, harvest 24 hours later, FIGS. 2 and 3
  expression of iNOS: decreased significantly
iNOS; confirmation in separate experiments, FIG. 4
  suppression of iNOS expression, separate experiments: specifically suppressed iNOS
COX-2
  expression of COX2: slightly
MAO-A [1]
  inhibition of MAO-A (activity curve): found to inhibit MAO-A

## c1ccc(-c2ccncc2)cc1 [4-phenylpyridine]
mice
  effect on dopamine levels: no significant effect
  decrease in dopamine metabolite levels induced by MPTP: prevented the decrease

## c1cncc([C@@H]2CCCCN2)c1 [anabasine]
MAO-A [2]
  MAO inhibitory effects against MAO-A: exhibited MAO inhibitory effects
MAO-B
  MAO inhibitory effects against MAO-B: exhibited MAO inhibitory effects

## C1=CCC(c2cccnc2)NC1 (stereo not shown) [anatabine]
MAO-A [2]
  MAO inhibitory effects against MAO-A: exhibited MAO inhibitory effects
MAO-B
  MAO inhibitory effects against MAO-B: exhibited MAO inhibitory effects

## CN1CCCC1c1cccnc1 (stereo not shown) [nicotine]
mice
  effect on dopamine levels: no significant effect
  decrease in dopamine metabolite levels induced by MPTP: prevented the decrease

## c1cncc([C@@H]2CCCN2)c1 [nornicotine]
MAO-A [2]
  MAO inhibitory effects against MAO-A: exhibited MAO inhibitory effects
MAO-B
  MAO inhibitory effects against MAO-B: exhibited MAO inhibitory effects
